Measured values published in patent US11498943B2, “Amyloid inhibitory peptides” (TECHNISCHE UNIVERSITÄT MÜNCHEN, priority 2018, dated 2022).
Where a SMILES comes first, the peptide text is derived from it. [ ]: non-standard residue; d: D form. NMeI = CC[C@H](C)[C@H](NC)C(=O)O; Sar = CNCC(=O)O

Experiments:
[1] = Peptide stability in human plasma (in vitro); assay type: in vitro ADME; settings: human blood plasma, 200 μM peptide, 37° C., read-out: t1/2 in human plasma
Experimental: Peptide Stability in Human Plasma (In Vitro)
Peptides were dissolved in human blood plasma (obtained from voluntary healthy donors) at a concentration of 200 μM and incubated at 37° C. for various time intervals. Following quenching (1/1) with aqueous trichloroacetic acid (10%), solutions were incubated on ice for 10 min, subjected to centrifugation to precipitate plasma proteins (20200 g; 4 min), and the supernatants were mixed (1/2) with a solution consisting of 80% HPLC buffer B and 20% HPLC buffer A (see below). To quantify intact peptide at different time points, solutions containing the supernatants were analyzed by RP-HPLC (detection at 214 nm) by using a Nucleosil 100 C18 column (Grace) (length 33 mm length, ID 8 mm, 7 μm particle size) with a flow rate of 2.0 ml/min and eluting buffers A, 0.058% (v/v) TFA in water, and B, 0.05% (v/v) TFA in 90% (v/v) CH3CN in water. The elution gradient was 10-90% B in A over 8 min; this step was followed by a 90-10% B in A over 3 min step to establish starting conditions. HPLC fractions were collected, lyophilized, and analyzed by MALDI-TOF-MS using a Bruker Daltonik MALDI-TOF MS instrument.

Aβ40 [2] = target: T1, Aβ40 (Homo sapiens, UniProt P05067); settings: as previously found; cited from earlier work
T1 construct: Aβ40 (TFA salt) was synthesized by Fmoc-based solid phase synthesis (SPPS); made in house; host or cells: chemical synthesis (Fmoc SPPS on Tentagel R PHB resin)

IAPP [3] = target: T2, IAPP (Homo sapiens, UniProt P10997); assay: IAPP fibrillogenesis by ThT binding, confirmed by TEM, with cell damage by MTT reduction; assay type: biochemical; parameters: IAPP was synthesized by SPPS and the Fmoc-strategy on RINK resin, subjected to air oxidation and purified by RP-HPLC; made in house; host or cells: chemical synthesis (Fmoc SPPS on RINK resin, air oxidation); settings: IAPP 6 μM, MTT in RIN5fm cells
T2 sequence (P10997 34-70 limits assumed): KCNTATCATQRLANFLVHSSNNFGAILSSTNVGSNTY
Experimental: (§1) Thioflavin T (ThT) Binding Assays
(§2) At indicated time points, aliquots were gently mixed with a ThT solution (20 μM ThT in 0.05 M glycine/NaOH, pH 8.5); ThT binding was determined immediately by measuring fluorescence emission at 486 nm upon excitation at 450 nm using a 2030 Multilabel Reader VictorX3 (PerkinElmer Life Sciences). Effects of peptides added at specific pre- and post-nucleation time points of Aβ40 amyloidogenesis were studied by adding aliquots of Aβ40 solutions (16.5 μM; incubation conditions as above) aged for the indicated time points to the peptide (in dry form) as previously described and ThT binding was determined as above.
(§3) 10 μl aliquots of solutions of the ThT binding and MTT assays were applied on carbon-coated grids at indicated time points, washed with distilled water and stained with aqueous 2% (w/v) uranyl acetate as described. Grids were examined using a JEOL JEM 100CX (at 100 kV) or a JEOL 1400 Nus electron microscope (at 120 kV).
(§4) Both cell lines were cultured and plated in 96-well plates as described. […] Following incubation with the cells for ˜20 h (37° C., humidified atmosphere with 5% CO2), the MTT reduction assay was used to assess cell damage/metabolic activity as previously described.

Aβ40 [4] = target: T1, Aβ40; assay: Aβ40 fibrillogenesis by ThT binding, confirmed by TEM, with cell damage by MTT reduction; assay type: biochemical; settings: Aβ40 16.5 μM, MTT in PC12 cells
Experimental: as §1, §2, §3, §4

IAPP [5] = target: T2, IAPP; parameters: IAPP was synthesized by SPPS and the Fmoc-strategy on RINK resin, subjected to air oxidation and purified by RP-HPLC; made in house; host or cells: chemical synthesis (Fmoc SPPS on RINK resin, air oxidation); settings: as previously found; cited from earlier work
Aβ40 [6] = target: T1, Aβ40; settings: Aβ40 500 nM; value marked with literature reference [5]; read-out: IC50 (±SD) (nM) Aβ40 inhibition; cited from earlier work

T1 sequence (P05067 672-711): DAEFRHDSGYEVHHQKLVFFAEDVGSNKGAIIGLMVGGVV

In the case of `CC[C@H](C)[C@@H](C(=O)N[C@@H](CC(C)C)C(=O)N[C@@H](CO)C(N)=O)N(C)C(=O)[C@H](C)NC(=O)CN(C)C(=O)[C@H](Cc1ccccc1)NC(=O)[C@H](CC(N)=O)NC(=O)[C@H](CCCNC(=N)N)NC(=O)[C@H](CCCNC(=N)N)NC(=O)[C@H](CCCNC(=N)N)NC(=O)[C@H](Cc1c[nH]cn1)NC(=O)[C@@H](NC(=O)[C@H](CC(C)C)NC(=O)[C@H](Cc1ccccc1)NC(=O)[C@H](CC(N)=O)NC(=O)[C@H](C)NC(=O)[C@H](CC(C)C)NC(=O)[C@H](CCCNC(=N)N)NC(=O)[C@H](CCC(N)=O)NC(=O)[C@@H](NC(=O)[C@H](C)N)[C@@H](C)O)C(C)C` [R3-GI (1)] (H-ATQRLANFLVHRRRNF[Sar]A[NMeI]LS-NH2; N-terminus assumed), the half-life at 200 μM [1] is listed as about 20 min, the “app. Kd of interaction with fluorescently labeled Aβ40” value (Aβ40 [2]) is listed as “mid-nanomolar” and the “Effect on amyloid self-assembly and cell damage by IAPP” value (IAPP [3]) is listed as “not IAPP amyloidogenesis”. The “Effect on amyloid self-assembly and cell-damaging effects of Aβ40” value (Aβ40 [4]) was “able to inhibit”, the “app. Kd of interaction with fluorescently labeled IAPP” value (IAPP [5]) was “mid-nanomolar” and the IC50 (Aβ40 [6]) was 116 nM.
